# In US20170065667A1, “METHODS FOR SYNCHRONIZATION OF ESTROUS CYCLES AND OVULATION FOR FIXED TIME ARTIFICIAL INSEMINATION IN CATTLE” (Parnell Technologies Pty Ltd., priority 2014, published 2017):
# Several values for one entry are separate records, joined by “and”; a condition that tells them apart may be missing. Identical values can stand only once.
# Test system: lactating Holstein cows
# Experiment: Experiment 1: pregnancies per AI (P/AI) after one vs. two cloprostenol sodium injections in Double-Ovsynch, FTAI
# Assay type: in vivo, cattle
# Conditions: for P/AI: quartiles 2, 3 and 4 combined
# Protocol: An experiment was conducted to determine the effectiveness of the exogenous administration of hormones for synchronizing the estrous cycles of lactating dairy cattle and resulting pregnancy rates subsequent to FTAI. A total of 373 lactating Holstein cows (172 primiparous, 201 multiparous) were synchronized with a Double-Ovsynch program comprising a first or presynchronization Ovsynch phase followed by a second Ovsynch phase. All animals were synchronized using a GnRH composition (about 100 mcg of gonadorelin acetate per mL, GONAbreed®, Parnell Technologies Pty Ltd, Alexandria, Australia) and a PGF2α analog composition (about 250 mcg of cloprostenol sodium per mL, estroPLAN®, Parnell Technologies Pty Ltd, Alexandria, Australia). The first Ovsynch phase began at about 51 to about 57 days in milk where the cows received a first 1 mL intramuscular injection of a gonadorelin acetate composition. At about 58 to about 64 days in milk, the cows received a first 2 mL intramuscular injection of a cloprostenol sodium composition. At about 61 to about 67 days in milk, the cows received a second 1 mL intramuscular injection of a gonadorelin acetate composition concluding the first Ovsynch phase. The animals were then synchronized with a second Ovsynch phase comprising an Ovsynch-56 protocol beginning at about 68 to about 74 days in milk where the cows received a third 1 mL intramuscular injection of gonadorelin acetate composition. At about 75 to about 81 days in milk, the animals received a second 2 mL intramuscular injection of a cloprostenol sodium composition. At about 77 to about 83 days in milk (about 56 hours after the second injection of a cloprostenol sodium composition), the animals received a fourth 1 mL intramuscular injection of a gonadorelin acetate composition. And at about 78 to about 84 days in milk (about 16 hours after the fourth injection of the gonadorelin acetate composition), the animals receive AI, concluding the second Ovsynch phase. […] The experimental protocol is shown in the diagram of FIG. 2. Statistical analyses were performed with SAS (SAS Institute, 2006). Variables with a binomial distribution, such as P/AI and percentage of animals with CL regression, were analyzed by logistic regression using the LOGISTIC procedure. One-tailed comparisons were utilized throughout the study for comparison of the effect of an additional cloprostenol sodium injection on CL regression and animals pregnant to the FTAI. Continuous variables were analyzed using ANOVA with logistic regression utilized to compare the relationship between circulating P4 and the binomial traits. Animals with ≦2.0 ng/mL P4 on day of PGF were removed from the analysis (n=29; 13 primiparous, 16 multiparous) due to lack of synchronization to the double Ovsynch protocol. Therefore, all analyses were done with a total of 344 lactating dairy cows (n=159 primiparous; n=185 multiparous). Statistical differences were considered significant for P≦0.05 and as a tendency for P≦0.15.
compound,measurement,setting,value
O=C(O)CCC/C=C\CC1C(O)CC(O)C1/C=C/C(O)COc1cccc(Cl)c1 (stereo not shown) [cloprostenol sodium],"Effect of PGF, relative difference in P/AI (two minus one, divided by one)",multiparous,18.9% (P = 0.15)
same,"Pregnant/AI, % (n/n)","one injection, Quartile 1, [P4] 2.0-4.8 at first injection",31.0% and 31.0 (13/42) %
same,"Pregnant/AI, % (n/n)","one injection, Quartile 2, [P4] 4.9-6.7",40.0% and 40.0 (18/45) %
same,"Pregnant/AI, % (n/n)","one injection, Quartile 3, [P4] 6.8-8.7",47.7% and 47.7 (21/44) %
same,"Pregnant/AI, % (n/n)","one injection, Quartile 4, [P4] 8.8-12",44.4% and 44.4 (20/45) %
same,percentage of cows pregnant/AI (P/AI),"one injection, multiparous",37.5% (36/96)
same,percentage of cows pregnant/AI (P/AI),"one injection, overall",40.1% (72/176)
same,percentage of cows pregnant/AI (P/AI),"one injection, primiparous",45.0% (36/80)
same,P/AI,one injection,44.0%
same,"Effect of PGF, relative difference in P/AI (two minus one, divided by one)",overall,15.2% (P = 0.13)
same,"Effect of PGF, relative difference in P/AI (two minus one, divided by one)",primiparous,7.11% (P = 0.35)
same,"Pregnant/AI, % (n/n)","two injections, Quartile 1, [P4] 2.0-5.4 at first injection",31.7% and 31.7 (13/41) %
same,"Pregnant/AI, % (n/n)","two injections, Quartile 2, [P4] 5.5-7.0",46.7% and 46.7 (21/45) %
same,"Pregnant/AI, % (n/n)","two injections, Quartile 3, [P4] 7.1-8.6",55.8% and 55.8 (24/43) %
same,"Pregnant/AI, % (n/n)","two injections, Quartile 4, [P4] 8.7-12",56.4% and 56.4 (22/39) %
same,percentage of cows pregnant/AI (P/AI),"two injections, multiparous",44.6% (41/89)
same,percentage of cows pregnant/AI (P/AI),"two injections, overall",46.2% (80/168)
same,percentage of cows pregnant/AI (P/AI),"two injections, primiparous",48.2% (39/79)
same,P/AI,two injections,52.8%
